Molecules are shown by their SMILES.

The subject of the first experiment is HIV-1 (HIVIIIB). The experiment is described as follows: HIV-1 replication in MT2 cell line with and without 30% human serum (viral RT activity in supernatant). In kind it is cell-based. Conditions: Human immunodeficiency virus 1, MT2, MT-2 cells, with 30% human serum, average IC50 if tested more than once, read-out: MT-2 (HIVIIIB) with 30% HS IC50 range. How it is done:
HIV-1 Replication in MT2 cell line with and without 30% human serum: The cells are infected at a Multiciplicity of Infection (MOI) of 0.5 for 3 h and then washed twice with complete media to remove residual virus. Cells are then resuspended at 0.5×10^6/ml in complete medium (RPMI, 10% FBS, 1% sodium pyruvate), and seeded into 96-well plates (6.25×10^4/well). The cells are cultured in the presence or absence of various concentrations of test compounds in serial dilutions for 3 days at 37° C. The test compounds are serially diluted in complete medium supplemented or not with 30% human serum. After 3 days, 100 μL of cultured medium with cells are replaced with 120 μL of freshly diluted test compounds in complete medium containing or not 30% Human serum. The level of HIV-1 replication is determined at days 5 after infection by the presence of viral RT activity in harvested supernatant fluid. The IC50 and IC90 values for the virus replication are determined by using GRAPHPAD PRISM software.
The IC50 of the compounds tested in accordance with the HIV replication activity assay MT-2 (HIVIIIB) are represented in Table 4 (without HS) and Table 5 (with 30% HS)
As to `CC(C)C1=C2[C@H]3CC[C@@H]4[C@@]5(C)CC[C@H](OC(=O)CC(C)(C)C(=O)O)C(C)(C)[C@@H]5CC[C@@]4(C)[C@]3(C)CC[C@@]2(C(=O)NC2CCNCC2)CC1=O` [9-31, 3β-O-(3′,3′-Dimethylsuccinyl)-21-oxolup-18-en-28-oic acid N-(4-aminopiperidine)-acetamide], the half-inhibitory concentration (IC50) fell in the range of 200 to 999 nM.
On the same count and under the same terms, in the case of `CC(C)C1=C2[C@H]3CC[C@@H]4[C@@]5(C)CC[C@H](OC(=O)CC(C)(C)C(=O)O)C(C)(C)[C@@H]5CC[C@@]4(C)[C@]3(C)CC[C@@]2(C(=O)Nc2ccncc2)CC1=O` [9-52, 3β-O-(3′,3′-Dimethylsuccinyl)-21-oxolup-18-en-28-oic acid N-pyridin-4-yl-acetamide] it was below 199 nM; in that of `CC(C)C1=C2[C@H]3CC[C@@H]4[C@@]5(C)CC[C@H](OC(=O)CC(C)(C)C(=O)O)C(C)(C)[C@@H]5CC[C@@]4(C)[C@]3(C)CC[C@@]2(C(=O)Nc2nccc(C(F)(F)F)n2)CC1=O` [9-72, 3β-O-(3′,3′-Dimethylsuccinyl)-21-oxolup-18-en-28-oic acid N-4-trifluoro-pyrimidin-2-yl-acetamide], below 199 nM; in that of `CC(C)C1=C2[C@H]3CC[C@@H]4[C@@]5(C)CC[C@H](OC(=O)CC(C)(C)C(=O)O)C(C)(C)[C@@H]5CC[C@@]4(C)[C@]3(C)CC[C@@]2(C(=O)Nc2cnc3ccccc3c2)CC1=O` [9-60, 3β-O-(3′,3′-Dimethylsuccinyl)-21-oxolup-18-en-28-oic acid N-quinolin-3-yl-acetamide], below 199 nM.
Same read-out and setting: the result for `CC(C)C1=C2[C@H]3CC[C@@H]4[C@@]5(C)CC[C@H](OC(=O)CC(C)(C)C(=O)O)C(C)(C)[C@@H]5CC[C@@]4(C)[C@]3(C)CC[C@@]2(C(=O)Nc2cncc3ccccc23)CC1=O` [9-63, 3β-O-(3′,3′-Dimethylsuccinyl)-21-oxolup-18-en-28-oic acid N-isoquinolin-4-yl-acetamide] reads below 199 nM.
Consider `CC(C)C1=C2[C@H]3CC[C@@H]4[C@@]5(C)CC[C@H](OC(=O)CC(C)(C)C(=O)O)C(C)(C)[C@@H]5CC[C@@]4(C)[C@]3(C)CC[C@@]2(C(=O)N2CCNC(=O)C2)CC1=O` [9-37, 3β-O-(3′,3′-Dimethylsuccinyl)-21-oxolup-18-en-28-oic acid N-4-piperazi-2-one acetamide], for which the IC50 was below 199 nM.
For the molecule `CC(=O)N1CC2CCC(C1)N2C(=O)[C@@]12CC[C@]3(C)C(CCC4[C@@]5(C)CC[C@H](OC(=O)CC(C)(C)C(=O)O)C(C)(C)C5CC[C@]43C)C1=C(C(C)C)C(=O)C2` (stereo partly drawn) [9-95, 3β-O-(3′,3′-Dimethylsuccinyl)-21-oxolup-18-en-28-oic acid N-8-acetylamino-3,8-diaza-bicyclo[3.2.1]octane-3-acetamide], the IC50 is below 199 nM.
With `CC(C)C1=C2C3CCC4[C@@]5(C)CC[C@H](OC(=O)CC(C)(C)C(=O)O)C(C)(C)C5CC[C@@]4(C)[C@]3(C)CC[C@@]2(C(=O)NC[C@@H]2CCCN2C(=O)OC(C)(C)C)CC1=O` (stereo partly drawn) [9-80, 3β-O-(3′,3′-Dimethylsuccinyl)-21-oxolup-18-en-28-oic acid N-(S)-2-acetylaminomethyl-pyrrolidine-1-carboxylic acid tert-butyl ester], the IC50 was below 199 nM.
`CC(C)C1=C2[C@H]3CC[C@@H]4[C@@]5(C)CC[C@H](OC(=O)CC(C)(C)C(=O)O)C(C)(C)[C@@H]5CC[C@@]4(C)[C@]3(C)CC[C@@]2(C(=O)N2CCOCC2)CC1=O` [9-7, 3β-O-(3′,3′-Dimethylsuccinyl)-21-oxolup-18-en-28-oic acid N-morpholyl acetamide]: the IC50 is below 199 nM.
On to `Cc1cc(C)nc(NC(=O)[C@@]23CC[C@]4(C)[C@H](CC[C@@H]5[C@@]6(C)CC[C@H](OC(=O)CC(C)(C)C(=O)O)C(C)(C)[C@@H]6CC[C@]54C)C2=C(C(C)C)C(=O)C3)n1` [9-58, 3β-O-(3′,3′-Dimethylsuccinyl)-21-oxolup-18-en-28-oic acid N-4,6-dimethyl-pyrimidin-2-yl-acetamide], for which the IC50 was below 199 nM.
The same measure, in the same setting: in the case of `CC(C)C1=C2[C@H]3CC[C@@H]4[C@@]5(C)CC[C@H](OC(=O)CC(C)(C)C(=O)O)C(C)(C)[C@@H]5CC[C@@]4(C)[C@]3(C)CC[C@@]2(C(=O)NC(C)(C)C2CC2)CC1=O` [9-73, 3β-O-(3′,3′-Dimethylsuccinyl)-21-oxolup-18-en-28-oic acid N-(1-cyclopropyl-1-methyl-ethyl)-acetamide] it was below 199 nM.
As for `CC(C)C1=C2[C@H]3CC[C@@H]4[C@@]5(C)CC[C@H](OC(=O)CC(C)(C)C(=O)O)C(C)(C)[C@@H]5CC[C@@]4(C)[C@]3(C)CC[C@@]2(C(=O)Nc2ccccn2)CC1=O` [9-25, 3β-O-(3′,3′-Dimethylsuccinyl)-21-oxolup-18-en-28-oic acid N-pyridin-2-yl-acetamide], the half-maximal inhibitory concentration (IC50) was below 199 nM.
Take `CC(=O)N1CCC(NC(=O)[C@@]23CC[C@]4(C)[C@H](CC[C@@H]5[C@@]6(C)CC[C@H](OC(=O)CC(C)(C)C(=O)O)C(C)(C)[C@@H]6CC[C@]54C)C2=C(C(C)C)C(=O)C3)CC1` [9-32, 3β-O-(3′,3′-Dimethylsuccinyl)-21-oxolup-18-en-28-oic acid N-(4-amino-N-1-acetyl-piperidine)-acetamide]: the IC50 is below 199 nM.
For `CC(C)C1=C2[C@H]3CC[C@@H]4[C@@]5(C)CC[C@H](OC(=O)CC(C)(C)C(=O)O)C(C)(C)[C@@H]5CC[C@@]4(C)[C@]3(C)CC[C@@]2(C(=O)Nc2ccccc2C(F)(F)F)CC1=O` [9-65, 3β-O-(3′,3′-Dimethylsuccinyl)-21-oxolup-18-en-28-oic acid N-2-trifluoromethyl-phen-1-yl acetamide], the IC50 was below 199 nM.
With `CC(C)C1=C2[C@H]3CC[C@@H]4[C@@]5(C)CC[C@H](OC(=O)CC(C)(C)C(=O)O)C(C)(C)[C@@H]5CC[C@@]4(C)[C@]3(C)CC[C@@]2(C(=O)N2CCC2)CC1=O` [9-70, 3β-O-(3′,3′-Dimethylsuccinyl)-21-oxolup-18-en-28-oic acid N-azetidine-1 acetamide], the IC50 is below 199 nM.
Still for that read-out and setting: in the case of `CC(C)C1=C2[C@H]3CC[C@@H]4[C@@]5(C)CC[C@H](OC(=O)CC(C)(C)C(=O)O)C(C)(C)[C@@H]5CC[C@@]4(C)[C@]3(C)CC[C@@]2(C(=O)N2CCN(C)C(=O)C2)CC1=O` [9-46, 3β-O-(3′,3′-Dimethylsuccinyl)-21-oxolup-18-en-28-oic acid N-4-(1-methyl-piperazi-2-one)-acetamide] it was below 199 nM; in that of `CC(C)C1=C2[C@H]3CC[C@@H]4[C@@]5(C)CC[C@H](OC(=O)CC(C)(C)C(=O)O)C(C)(C)[C@@H]5CC[C@@]4(C)[C@]3(C)CC[C@@]2(C(=O)N2CCC(NC(=O)OC(C)(C)C)CC2)CC1=O` [9-41, 3β-O-(3′,3′-Dimethylsuccinyl)-21-oxolup-18-en-28-oic acid N-(4-aminocarboxylic acid tert-butyl-ester-1-piperidine)-acetamide], below 199 nM.
As to `CC(C)C1=C2[C@H]3CC[C@@H]4[C@@]5(C)CC[C@H](OC(=O)CC(C)(C)C(=O)O)C(C)(C)[C@@H]5CC[C@@]4(C)[C@]3(C)CC[C@@]2(C(=O)N2CCC(N(C)C)CC2)CC1=O` [9-74, 3β-O-(3′,3′-Dimethylsuccinyl)-21-oxolup-18-en-28-oic acid N-(4-dimethylamino-piperidin-1-yl)-acetamide], the IC50 is below 199 nM.
Turning to `CC(C)C1=C2C3CCC4[C@@]5(C)CC[C@H](OC(=O)CC(C)(C)C(=O)O)C(C)(C)C5CC[C@@]4(C)[C@]3(C)CC[C@@]2(C(=O)Nc2ncc3ccccc3n2)CC1=O` (stereo partly drawn) [9-89, 3β-O-(3′,3′-Dimethylsuccinyl)-21-oxolup-18-en-28-oic acid N-quinazolin-2-yl acetamide], the half-maximal inhibitory concentration (IC50) is below 199 nM.
In the case of `COc1ccc(CNC(=O)[C@@]23CC[C@]4(C)[C@H](CC[C@@H]5[C@@]6(C)CC[C@H](OC(=O)CC(C)(C)C(=O)O)C(C)(C)[C@@H]6CC[C@]54C)C2=C(C(C)C)C(=O)C3)cc1` [9-15, 3β-O-(3′,3′-Dimethylsuccinyl)-21-oxolup-18-en-28-oic acid N-4-methoxy-benzylamide], the IC50 is below 199 nM.
On to `CC(C)C1=C2C3CCC4[C@@]5(C)CC[C@H](OC(=O)CC(C)(C)C(=O)O)C(C)(C)C5CC[C@@]4(C)[C@]3(C)CC[C@@]2(C(=O)N(C)C(C)(C)C)CC1=O` (stereo partly drawn) [9-78, 3β-O-(3′,3′-Dimethylsuccinyl)-21-oxolup-18-en-28-oic acid N-tert-butyl-N-methyl-acetamide], for which the IC50 is below 199 nM.
`CC(C)C1=C2[C@H]3CC[C@@H]4[C@@]5(C)CC[C@H](OC(=O)CC(C)(C)C(=O)O)C(C)(C)[C@@H]5CC[C@@]4(C)[C@]3(C)CC[C@@]2(C(=O)NC2CCC(F)(F)CC2)CC1=O` [9-85, 3β-O-(3′,3′-Dimethylsuccinyl)-21-oxolup-18-en-28-oic acid N-(4,4-difluoro-cyclohexyl) acetamide]: the IC50 was below 199 nM.

Still in this experiment, the particulars now being: Human immunodeficiency virus 1, MT2, MT-2 cells, without HS, average IC50 if tested more than once, read-out: MT-2 (HIVIIIB) IC50 range.
As to `CNC(=O)[C@@]12CC[C@]3(C)[C@H](CC[C@@H]4[C@@]5(C)CC[C@H](OC(=O)CC(C)(C)C(=O)O)C(C)(C)[C@@H]5CC[C@]43C)C1=C(C(C)C)C(=O)C2` [9-2, 3β-O-(3′,3′-Dimethylsuccinyl)-21-oxolup-18-en-28-oic acid N-methylamide], the IC50 was below 199 nM.

For the origin of these results see patent publication US8431556B2, “C-21-keto lupane derivatives preparation and use thereof” (Vertex Pharmaceuticals Incorporated, priority 2008, dated 2013).
